From US10358446B2, “Bruton's tyrosine kinase inhibitors” (Zibo Biopolar Changsheng Pharmaceutical Co. Ltd., priority 2015, dated 2019)

target: BTK (Homo sapiens (Human), UniProt Q06187); assay: Btk kinase assay (HTRF); type: biochemical; conditions: [ATP]=80 μM, BTK=3.4 nM; read-out: BTK Inhibition
Method: Btk kinase activity was determined using a homogenous time resolved fluorescence (HTRF) methodology. Measurements were performed in a reaction volume of 15 μL using 384-well assay plates. Kinase enzyme, inhibitor, ATP and 1 μM peptide substrate were incubated in a reaction buffer compose of Hepes 50 mM (pH7.0), NaN3 0.02%, BSA 0.01%, Orthocanadate 0.1 mM. After one hour, the kinase reaction was quenched by the addition of […] antibody and XL-665 in 1× Detection buffer containing 60 mM EDTA (Cisbio), and the mixture was allowed to incubate for one hour. The HTRF signal was measured on a multimode plate reader (EnVision® Multilabel Reader, Perkin Elmer) with an excitation wavelength (λEx) of 330 nm and detection wavelengths (λEm) of 615 and 665 nrm. Activity was determined by the ratio of the fluorescence at 665 nm to that at 615 nm. For each compound, enzyme activity as measured at various concentrations of compound, Negative control reactions were performed in the absence of inhibitor in two replicates and eight no enzyme controls were used to determine baseline fluorescence levels. IC50s were obtained according to the equation: […] For BTK assay, [ATP]=80 μM, BTK=3.4 nM.

Chain of BTK (Q06187 whole entry, species assumed): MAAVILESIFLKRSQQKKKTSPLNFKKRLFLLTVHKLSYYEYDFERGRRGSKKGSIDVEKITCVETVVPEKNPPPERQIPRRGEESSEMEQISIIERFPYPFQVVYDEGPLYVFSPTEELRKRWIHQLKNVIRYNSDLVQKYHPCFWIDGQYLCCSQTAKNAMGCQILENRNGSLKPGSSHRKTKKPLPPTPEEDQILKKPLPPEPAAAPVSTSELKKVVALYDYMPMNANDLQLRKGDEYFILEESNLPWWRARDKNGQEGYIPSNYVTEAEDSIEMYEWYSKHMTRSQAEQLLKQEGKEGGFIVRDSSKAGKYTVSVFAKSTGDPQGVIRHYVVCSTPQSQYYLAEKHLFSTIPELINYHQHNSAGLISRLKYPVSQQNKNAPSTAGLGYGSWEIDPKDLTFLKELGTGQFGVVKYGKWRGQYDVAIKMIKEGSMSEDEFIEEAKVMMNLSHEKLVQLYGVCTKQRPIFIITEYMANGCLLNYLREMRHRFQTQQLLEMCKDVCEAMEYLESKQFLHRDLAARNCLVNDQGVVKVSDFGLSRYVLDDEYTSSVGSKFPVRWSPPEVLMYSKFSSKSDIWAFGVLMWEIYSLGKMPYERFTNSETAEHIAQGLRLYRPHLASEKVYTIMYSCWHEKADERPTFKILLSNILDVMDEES

SMILES	IC50 [nM]
C=CC(=O)Nc1cccc(-n2c(=O)n(-c3ccc(Oc4cccc(F)c4)c(C)c3)c3cnccc32)c1 [Example 146, N-(3-(3-(4-(3-fluorophenoxy)-3-methylphenyl)-2-oxo-2,3-dihydro-1H-imidazo[4,5-c]pyridin-1-yl)phenyl)acrylamide]	10 to 100
C=CC(=O)N1CC[C@@H](n2c(=O)n(-c3ccc(Oc4cccc(OC)c4)c(F)c3)c3cnccc32)C1 [Example 53, (R)-1-(1-acryloylpyrrolidin-3-yl)-3-(3-fluoro-4-(3-methoxyphenoxy)phenyl)-1H-imidazo[4,5-c]pyridin-2(3H)-one]	10 to 100
C=CC(=O)N1CC[C@@H](n2c(=O)n(-c3ccc(Oc4ccccc4C)cc3)c3cnccc32)C1 [Example 83, (R)-1-(1-acryloylpyrrolidin-3-yl)-3-(4-(o-tolyloxy)phenyl)-1H-imidazo[4,5-c]pyridin-2(3H)-one]	10 to 100
C=CC(=O)N1CC[C@@H](n2c(=O)n(-c3ccc(Oc4ccccc4)c(F)c3)c3cnccc32)C1 [Example 95, (R)-1-(1-acryloylpyrrolidin-3-yl)-3-(3-fluoro-4-phenoxyphenyl)-1,3-dihydro-2H-imidazo[4,5-c]pyridin-2-one]	10 to 100
C=CC(=O)N1CC[C@@H](n2c(=O)n(-c3ccc(Oc4ccccc4)cc3)c3cncc(C)c32)C1 [Example 176, (R)-1-(1-acryloylpyrrolidin-3-yl)-7-methyl-3-(4-phenoxyphenyl)-1H-imidazo[4,5-c]pyridin-2(3H)-one]	≤ 10
C=CC(=O)N1CC[C@@H](n2c(=O)n(-c3ccc(Oc4cccc(Cl)c4Cl)cc3)c3cnccc32)C1 [Example 99, (R)-1-(1-acryloylpyrrolidin-3-yl)-3-(4-(2,3-dichlorophenoxy)phenyl)-1,3-dihydro-2H-imidazo[4,5-c]pyridin-2-one]	10 to 100
C=CC(=O)N1CC[C@@H](n2c(=O)n(-c3ccc(Oc4ccccc4)cc3)c3cncc(Cl)c32)C1 [Example 151, (R)-1-(1-acryloylpyrrolidin-3-yl)-7-chloro-3-(4-phenoxyphenyl)-1H-imidazo[4,5-c]pyridin-2(3H)-one]	≤ 10
C=CC(=O)N1CC[C@@H](n2c(=O)n(-c3ccc(Oc4cccc(OC)c4)c(Cl)c3)c3cnccc32)C1 [Example 45, (R)-1-(1-acryloylpyrrolidin-3-yl)-3-(3-chloro-4-(3-methoxyphenoxy)phenyl)-1H-imidazo[4,5-c]pyridin-2(3H)-one]	10 to 100
C=CC(=O)Nc1cccc(-n2c(=O)n(-c3ccc(Oc4cccc(OC)c4)c(F)c3)c3cnccc32)c1 [Example 94, N-(3-(3-(3-fluoro-4-(3-methoxyphenoxy)phenyl)-2-oxo-2,3-dihydro-1H-imidazo[4,5-c]pyridin-1-yl)phenyl)acrylamide]	10 to 100
C=CC(=O)N1CC[C@@H](n2c(=O)n(-c3cccc(Oc4cccc(Cl)c4F)c3)c3cnccc32)C1 [Example 97, (R)-1-(1-acryloylpyrrolidin-3-yl)-3-(3-(3-chloro-2-fluorophenoxy)phenyl)-1,3-dihydro-2H-imidazo[4,5-c]pyridin-2-one]	10 to 100
C=CC(=O)N1CCC(n2c(=O)n(-c3ccc(Oc4cccc(OC(F)(F)F)c4)cc3)c3cnccc32)C1 (stereo not shown) [Example 112, 1-(1-acryloylpyrrolidin-3-yl)-3-(4-(3-(trifluoromethoxy)phenoxy)phenyl)-1H-imidazo[4,5-c]pyridin-2(3H)-one]	10 to 100
C=CC(=O)N1CCCC1Cn1c(=O)n(-c2ccc(Oc3ccccc3)cc2)c2cnccc21 (stereo not shown) [Example 178, 1-(1-Acryloyl-pyrrolidin-2-ylmethyl)-3-(4-phenoxy-phenyl)-1,3-dihydro-imidazo [4,5-c]pyridin-2-one]	10 to 100
C=CC(=O)N1CC[C@@H](n2c(=O)n(-c3ccc(Oc4ccc(OC)c(OC)c4)cc3)c3cnccc32)C1 [Example 40, (R)-1-(1-acryloylpyrrolidin-3-yl)-3-(4-(3,4-dimethoxyphenoxy)phenyl)-1H-imidazo[4,5-c]pyridin-2(3H)-one]	10 to 100
C=CC(=O)N1CC[C@@H](n2c(=O)n(-c3ccc(Oc4cccc(C5CC5)c4)cc3)c3cnccc32)C1 [Example 10, (R)-1-(1-acryloylpyrrolidin-3-yl)-3-(4-(3-cyclopropylphenoxy)phenyl)-1H-imidazo[4,5-c]pyridin-2(3H)-one]	100 to 1000
C=CC(=O)Nc1cccc(-n2c(=O)n(-c3ccc(Oc4cccc(C)c4)c(F)c3)c3cnccc32)c1 [Example 49, N-(3-(3-(3-fluoro-4-(m-tolyloxy)phenyl)-2-oxo-2,3-dihydro-1H-imidazo[4,5-c]pyridin-1-yl)phenyl)acrylamide]	10 to 100
C=CC(=O)N1CCC[C@@H](n2c(=O)n(-c3ccc(Oc4cccc(C)c4OC)cc3)c3cnccc32)C1 [Example 66, (R)-1-(1-acryloylpiperidin-3-yl)-3-(4-(2-methoxy-3-methylphenoxy)phenyl)-1H-imidazo[4,5-c] pyridin-2(3H)-one]	10 to 100
C=CC(=O)N1CC[C@@H](n2c(=O)n(-c3ccc(Oc4ccccn4)cc3)c3cnccc32)C1 [Example 104, (R)-1-(1-acryloylpyrrolidin-3-yl)-3-(4-(pyridin-2-yloxy)phenyl)-1,3-dihydro-2H-imidazo[4,5-c]pyridin-2-one]	100 to 1000
C=CC(=O)N1CC[C@@H](n2c(=O)n(-c3ccc(Oc4ccc(OC)cc4)cc3)c3cnccc32)C1 [Example 35, (R)-1-(1-acryloylpyrrolidin-3-yl)-3-(4-(4-methoxyphenoxy)phenyl)-1H-imidazo[4,5-c]pyridin-2(3H)-one]	10 to 100

Results, then the compound that gave them:

IC50 [nM]	SMILES
100 to 1000	C=CC(=O)Nc1cccc(-n2c(=O)n(-c3ccc(OCc4ccccc4C)cc3)c3cnccc32)c1 [Example 225, N-(3-(3-(4-((2-methylbenzyl)oxy)phenyl)-2-oxo-2,3-dihydro-1H-imidazo[4,5-c]pyridin-1-yl)phenyl)acrylamide]
1000 to 10000	C=CC(=O)N1CC[C@@H](n2c(=O)n(-c3ccc(OCc4ccccn4)cc3)c3cnccc32)C1 [Example 213, (R)-1-(1-acryloylpyrrolidin-3-yl)-3-(4-(pyridin-2-ylmethoxy)phenyl)-1H-imidazo[4,5-c]pyridin-2(3H)-one]
10 to 100	C=CC(=O)Nc1cccc(-n2c(=O)n(-c3ccc(OCc4ccccc4F)c(Cl)c3)c3cnccc32)c1 [Example 235, N-(3-(3-(3-chloro-4-((2-fluorobenzyl)oxy)phenyl)-2-oxo-2,3-dihydro-1H-imidazo[4,5-c]pyridin-1-yl)phenyl)acrylamide]
100 to 1000	C=CC(=O)Nc1cccc(-n2c(=O)n(-c3ccc(OCc4ccc(F)c(F)c4)cc3)c3cnccc32)c1 [Example 241, N-(3-(3-(4-((3,4-difluorobenzyl)oxy)phenyl)-2-oxo-2,3-dihydro-1H-imidazo[4,5-c]pyridin-1-yl)phenyl)acrylamide]
100 to 1000	C=CC(=O)N1CC[C@@H](n2c(=O)n(-c3ccc(OCc4ccccc4C(F)(F)F)c(Cl)c3)c3cnccc32)C1 [Example 203, (R)-1-(1-acryloylpyrrolidin-3-yl)-3-(3-chloro-4-((2-(trifluoromethyl)benzyl)oxy)phenyl)-1H-imidazo[4,5-c]pyridin-2(3H)-one]
100 to 1000	C=CC(=O)Nc1cccc(-n2c(=O)n(-c3ccc(NC(=O)c4ccc(C(F)(F)F)cc4)cc3)c3cnccc32)c1 [Example 263, N-(4-(1-(3-acrylamidophenyl)-2-oxo-1,2-dihydro-3H-imidazo[4,5-c]pyridin-3-yl)phenyl)-4-(trifluoromethyl)benzamide]
100 to 1000	C=CC(=O)N1CC[C@@H](n2c(=O)n(-c3ccc(OCc4ccccc4)cc3)c3cnccc32)C1 [Example 246]
≤ 10	C=CC(=O)N1CCC[C@@H](n2c(=O)n(-c3ccc(Oc4cccc(OC)c4Cl)cc3)c3cnccc32)C1 [Example 185, (R)-1-(1-acryloylpiperidin-3-yl)-3-(4-(2-chloro-3-methoxyphenoxy)phenyl)-1H-imidazo[4,5-c]pyridin-2(3H)-one]
100 to 1000	CN(C/C=C/C(=O)N1CCC[C@@H](n2c(=O)n(-c3ccc(Oc4ccccc4)cc3)c3cnccc32)C1)C1CC1 [Example 188, (R,E)-1-(1-(4-(cyclopropyl(methyl)amino)but-2-enoyl)piperidin-3-yl)-3-(4-phenoxyphenyl)-1H-imidazo[4,5-c]pyridin-2(3H)-one]
1000 to 10000	C=CC(=O)N1CC[C@@H](n2c(=O)n(-c3ccc(C(=O)NCc4cccc(OC)c4)cc3)c3cnccc32)C1 [Example 256, (R)-4-(1-(1-acryloylpyrrolidin-3-yl)-2-oxo-1H-imidazo[4,5-c]pyridin-3(2H)-yl)-N-(3-methoxybenzyl)benzamide]
100 to 1000	C=CC(=O)N1CC[C@@H](n2c(=O)n(-c3ccc(Oc4ccccc4)cc3)c3c(N)cccc32)C1 [Example 190, (R)-1-(1-acryloylpyrrolidin-3-yl)-4-amino-3-(4-phenoxyphenyl)-1H-benzo[d]imidazol-2(3H)-one]
100 to 1000	C=CC(=O)Nc1cccc(-n2c(=O)n(-c3ccc(OCc4ccc(C(F)(F)F)cc4)c(Cl)c3)c3cnccc32)c1 [Example 223, N-(3-(3-(3-chloro-4-((4-(trifluoromethyl)benzyl)oxy)phenyl)-2-oxo-2,3-dihydro-1H-imidazo[4,5-c]pyridin-1-yl)phenyl)acrylamide]
100 to 1000	C=CC(=O)Nc1cccc(-n2c(=O)n(-c3ccc(NC(=O)c4cccc(OC)c4)cc3)c3cnccc32)c1 [Example 266, N-(4-(1-(3-acrylamidophenyl)-2-oxo-1H-imidazo[4,5-c]pyridin-3(2H)-yl)phenyl)-3-methoxybenzamide]
